Experimental data from ChEMBL document CHEMBL1201862, “PubChem BioAssay data set” (2004).
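96-well plates; 48 h exposure; 5 concentrations. Endpoints by linear interpolation between flanking doses. Not reached: highest tested concentration assigned. At the GI50, growth is halved.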 Calls of active or inactive are those of the source. Cut-off read from the data, not from the text of the source: active = GI50 up to about 1.1 µM and inactive = higher.

Columns and labels:
Assay in all cases: DTP human tumour cell line panel, 48 h
MCF7 = tested on: MCF7
PC-3 = tested on: PC-3
ACHN = tested on: ACHN
HL-60 = tested on: HL-60
NCI-H460 = tested on: NCI-H460
HT-29 = tested on: HT-29
RPMI-8226 = tested on: RPMI-8226
SK-MEL-28 = tested on: SK-MEL-28
HOP-62 = tested on: HOP-62
MOLT-4 = tested on: MOLT-4
CAKI-1 = tested on: CAKI-1
SF-539 = tested on: SF-539
UACC-257 = tested on: UACC-257
EKVX = tested on: EKVX
HCT-15 = tested on: HCT-15
T47D = tested on: T47D
SN12C = tested on: SN12C
A549 = tested on: A549
HCC 2998 = tested on: HCC 2998
HCT-116 = tested on: HCT-116

| SMILES | GI50 (MCF7) | GI50 (PC-3) | GI50 (ACHN) | GI50 (HL-60) | GI50 (NCI-H460) | GI50 (HT-29) | GI50 (RPMI-8226) | GI50 (SK-MEL-28) | GI50 (HOP-62) | GI50 (MOLT-4) | GI50 (CAKI-1) | GI50 (SF-539) | GI50 (UACC-257) | GI50 (EKVX) | GI50 (HCT-15) [µM] | GI50 (T47D) | GI50 (SN12C) | GI50 (A549) | GI50 (HCC 2998) | GI50 (HCT-116) |
| --- | --- | --- | --- | --- | --- | --- | --- | --- | --- | --- | --- | --- | --- | --- | --- | --- | --- | --- | --- | --- |
| O=C(C=P(c1ccccc1)(c1ccccc1)c1ccccc1)c1ccccc1-c1ccccc1C(=O)C=P(c1ccccc1)(c1ccccc1)c1ccccc1 | < 0.01 µM (active) | < 0.01 µM (active) | 0.0272 µM (active) | < 0.01 µM (active) | 0.0248 µM (active) | 0.0236 µM (active) | < 0.01 µM (active) | 0.178 µM (active) | 0.0311 µM (active) | 0.0124 µM (active) | 0.163 µM (active) | 0.0328 µM (active) | < 0.01 µM (active) | 0.185 µM (active) | 0.28 | < 0.01 µM (active) | 0.0193 µM (active) | 0.0128 µM (active) | 0.0319 µM (active) | 0.0222 µM (active) |
| CCN(CC)CC[S+]([O-])c1c2cc(OC)ccc2nc2ccc(OC)cc12 (stereo not drawn) | 2.42 µM (inactive) | 12 µM (inactive) | 2.38 µM (inactive) | 3.67 µM (inactive) | 27.7 µM (inactive) | 3.44 µM (inactive) | 2.63 µM (inactive) | 14.7 µM (inactive) | 19.4 µM (inactive) | 2.31 µM (inactive) | 9.75 µM (inactive) | 2.32 µM (inactive) | 5.08 µM (inactive) | 15 µM (inactive) | 3.21 | 1.95 µM (inactive) | 4.49 µM (inactive) | 24.9 µM (inactive) | 18.3 µM (inactive) | 2.19 µM (inactive) |
| O=C1C(CN2CCOCC2)CCCC1CN1CCOCC1 (stereo not drawn) | 0.303 µM (active) | 15.6 µM (inactive) | 1.88 µM (inactive) | 0.787 µM (active) | 24.6 µM (inactive) | 1.76 µM (inactive) | 0.296 µM (active) | 1.95 µM (inactive) | > 100 µM (inactive) | 0.861 µM (active) | 0.394 µM (active) | 3.92 µM (inactive) | 2.09 µM (inactive) | 4.23 µM (inactive) | 1.09 | 1.13 µM (inactive) | 4.01 µM (inactive) | 24.1 µM (inactive) | 5.27 µM (inactive) | 1.29 µM (inactive) |
| CCOC(=O)c1c(OCC)[nH]c(=O)c(C(c2ccc(F)cc2)c2c(O)c(C(=O)OCC)c(OCC)[nH]c2=O)c1O | 20.4 µM (inactive) | 15.3 µM (inactive) | 16.3 µM (inactive) | 17.2 µM (inactive) | 16.4 µM (inactive) | 16.1 µM (inactive) | 16.1 µM (inactive) | 11.9 µM (inactive) | 13 µM (inactive) | 20.1 µM (inactive) | 18.9 µM (inactive) | 10 µM (inactive) | 14.8 µM (inactive) | 7.06 µM (inactive) | 18.4 | 4.44 µM (inactive) | 14.7 µM (inactive) | 14.8 µM (inactive) | 18.1 µM (inactive) | 25.7 µM (inactive) |
| COc1cc2oc(-c3ccc4c(c3)OCO4)c(OC)c(=O)c2c(OC)c1O | 69.7 µM (inactive) | 68.5 µM (inactive) | 67.8 µM (inactive) | 28.7 µM (inactive) | 64.6 µM (inactive) | > 100 µM (inactive) |  | > 100 µM (inactive) | 57.4 µM (inactive) | 45.7 µM (inactive) | > 100 µM (inactive) | > 100 µM (inactive) | > 100 µM (inactive) | 37.6 µM (inactive) | 78.7 | 31.5 µM (inactive) | 71.8 µM (inactive) | 48.1 µM (inactive) | 70.5 µM (inactive) | 61 µM (inactive) |
| O=C(O)CC(NC(=O)/C(=C/c1ccccc1O)NC(=O)c1ccccc1)C(=O)O (stereo not drawn) | 34 µM (inactive) | 86.1 µM (inactive) | 40.8 µM (inactive) | 25.8 µM (inactive) |  | 80.7 µM (inactive) | 82.6 µM (inactive) | > 100 µM (inactive) | > 100 µM (inactive) | 52.4 µM (inactive) | 34.7 µM (inactive) | > 100 µM (inactive) | > 100 µM (inactive) | 83.9 µM (inactive) | 59.4 | 79.4 µM (inactive) | > 100 µM (inactive) | > 100 µM (inactive) | > 100 µM (inactive) | > 100 µM (inactive) |
| COc1cc(OC)c(/C=N\Nc2nc3ccccc3c(=O)n2-c2ccccc2)c(OC)c1 | > 47.1 µM (inactive) | 26.3 µM (inactive) | 18.1 µM (inactive) | 33 µM (inactive) | 21.7 µM (inactive) | 24.5 µM (inactive) | 26.4 µM (inactive) | 27.4 µM (inactive) | 19.4 µM (inactive) | 22.9 µM (inactive) | 16 µM (inactive) | 18 µM (inactive) | 27.5 µM (inactive) | 26.9 µM (inactive) | 37.4 | 24.6 µM (inactive) | 30.7 µM (inactive) | 31.4 µM (inactive) | 39.6 µM (inactive) | 20.1 µM (inactive) |
